Patent US9510592B2, “Pesticidal compositions and processes related thereto” (Dow AgroSciences LLC, priority 2012, dated 2016)

Test system: Beet Armyworm (Spodoptera exigua)
Experiment: Bioassay on Beet Armyworm (BAW), 128-well diet tray assay
Format: in vivo
Details: percent mortality of second instar larvae, 50 μg/cm^2 on artificial diet, five to seven days, 25° C.; Table 3
Protocol: Certain molecules disclosed in this document were tested against BAW and CEW and CL using procedures described in the following examples. In the reporting of the results, the “BAW & CEW & CL Rating Table” was used (See Table Section).
Bioassays on BAW (Spodoptera exigua)
Bioassays on BAW were conducted using a 128-well diet tray assay. one to five second instar BAW larvae were placed in each well (3 mL) of the diet tray that had been previously filled with 1 mL of artificial diet to which 50 μg/cm^2 of the test compound (dissolved in 50 μL of 90:10 acetone-water mixture) had been applied (to each of eight wells) and then allowed to dry. Trays were covered with a clear self-adhesive cover, and held at 25° C., 14:10 light-dark for five to seven days. Percent mortality was recorded for the larvae in each well; activity in the eight wells was then averaged. The results are indicated in the table entitled “Table 3: Assay Results” (See Table Section).

| Compound | BAW Rating |
| --- | --- |
| O=C(NC1C[S+]([O-])C1)c1ccc(/C=C/C(c2cc(Cl)c(F)c(Cl)c2)C(F)(F)F)cc1F (stereo not drawn) [AC87] | A (50-100) |
| Cc1cc(/C=C/C(c2cc(Cl)cc(Cl)c2)C(F)(F)F)ccc1C(=O)NCc1nnc(C2CC2)o1 (stereo not drawn) [AC89, (E)-N-((5-Cyclopropyl-1,3,4-oxadiazol-2-yl)methyl)-4-(3-(3,5-dichlorophenyl)-4,4,4-trifluorobut-1-en-1-yl)-2-methylbenzamide] | A (50-100) |
| FC(F)(F)CNC(=S)CNC(=S)c1ccc(/C=C/C(c2cc(Cl)c(Cl)c(Cl)c2)C(F)(F)F)cc1Br (stereo not drawn) [AC90, (E)-2-Bromo-N-(2-thioxo-2-((2,2,2-trifluoroethyl)amino)ethyl)-4-(4,4,4-trifluoro-3-(3,4,5-trichlorophenyl)but-1-en-1-yl)benzothioamide] | A (50-100) |
| O=C(CNC(=S)c1ccc(/C=C/C(c2cc(Cl)c(Cl)c(Cl)c2)C(F)(F)F)cc1Br)NCC(F)(F)F (stereo not drawn) [AC91, (E)-2-(2-Bromo-4-(4,4,4-trifluoro-3-(3,4,5-trichlorophenyl)but-1-en-1-yl)phenylthioamido)-N-(2,2,2-trifluoroethyl)acetamide] | A (50-100) |
| O=C(NCC(=S)NCC(F)(F)F)c1ccc(/C=C/C(c2cc(Cl)c(Cl)c(Cl)c2)C(F)(F)F)cc1Br (stereo not drawn) [AC92, (E)-2-Bromo-N-(2-thioxo-2-((2,2,2-trifluoroethyl)amino)ethyl)-4-(4,4,4-trifluoro-3-(3,4,5-trichlorophenyl)but-1-en-1-yl)benzamide] | A (50-100) |
| Cc1cc(/C=C\C(c2cc(Cl)cc(Cl)c2)C(F)(F)F)ccc1C(=O)NCC(=O)NC1CC1 (stereo not drawn) [AC93] | A (50-100) |
| O=C(CNC(=O)c1ccc(/C=C\C(c2cc(Cl)c(Cl)c(Cl)c2)C(F)(F)F)cc1Br)NCC(F)(F)F (stereo not drawn) [AC95, (Z)-2-Bromo-N-(2-oxo-2-((2,2,2-trifluoroethyl)amino)ethyl)-4-(4,4,4-trifluoro-3-(3,4,5-trichlorophenyl)but-1-en-1-yl)benzamide] | A (50-100) |
| O=C(CNC(=O)c1ccc(/C=C/C(c2cc(Cl)c(F)c(Cl)c2)C(F)(F)F)cc1[N+](=O)[O-])NCC(F)(F)F (stereo not drawn) [AC98] | A (50-100) |
| O=C(CNC(=O)c1ccc(/C=C/C(c2ccc(F)c(Cl)c2)C(F)(F)F)cc1Br)NCC(F)(F)F (stereo not drawn) [AC99] | A (50-100) |
| CC(=O)N1CCC(NC(=O)c2ccc(/C=C/C(c3cc(Cl)c(Cl)c(Cl)c3)C(F)(F)F)cc2Br)CC1 (stereo not drawn) [AC103, (E)-N-(1-Acetylpiperidin-4-yl)-2-bromo-4-(4,4,4-trifluoro-3-(3,4,5-trichlorophenyl)but-1-en-1-yl)benzamide] | A (50-100) |
| O=C(NC1CCN(C(=O)CC(F)(F)F)CC1)c1ccc(/C=C/C(c2cc(Cl)c(Cl)c(Cl)c2)C(F)(F)F)cc1Br (stereo not drawn) [AC104, (E)-2-Bromo-4-(4,4,4-trifluoro-3-(3,4,5-trichlorophenyl)but-1-en-1-yl)-N-(1-(3,3,3-trifluoropropanoyl)piperidin-4-yl)benzamide] | A (50-100) |
| CN1CCC(NC(=O)c2ccc(/C=C/C(c3cc(Cl)c(Cl)c(Cl)c3)C(F)(F)F)cc2Br)CC1 (stereo not drawn) [AC106, (E)-2-Bromo-N-(1-methylpiperidin-4-yl)-4-(4,4,4-trifluoro-3-(3,4,5-trichlorophenyl)but-1-en-1-yl)benzamide] | A (50-100) |
| N#CCN1CCC(NC(=O)c2ccc(/C=C/C(c3cc(Cl)c(Cl)c(Cl)c3)C(F)(F)F)cc2Br)CC1 (stereo not drawn) [AC107] | B (More than 0-Less than 50) |
| O=C(NC1CCN(C2COC2)CC1)c1ccc(/C=C/C(c2cc(Cl)c(Cl)c(Cl)c2)C(F)(F)F)cc1Br (stereo not drawn) [AC108, (E)-2-Bromo-N-(1-(oxetan-3-yl)piperidin-4-yl)-4-(4,4,4-trifluoro-3-(3,4,5-trichlorophenyl)but-1-en-1-yl)benzamide] | B (More than 0-Less than 50) |
| CONC(=O)CNC(=O)c1ccc(/C=C/C(c2cc(Cl)c(Cl)c(Cl)c2)C(F)(F)F)cc1Br (stereo not drawn) [AC110] | A (50-100) |
| C=CCNC(=O)CNC(=O)c1ccc(/C=C/C(c2cc(Cl)c(Cl)c(Cl)c2)C(F)(F)F)cc1Br (stereo not drawn) [AC111] | A (50-100) |
| O=C(NCCc1ccc(Cl)nc1)c1ccc(/C=C/C(c2cc(Cl)c(Cl)c(Cl)c2)C(F)(F)F)cc1Br (stereo not drawn) [AC113] | B (More than 0-Less than 50) |
| O=C(NC1CCNCC1)c1ccc(/C=C/C(c2cc(Cl)c(Cl)c(Cl)c2)C(F)(F)F)cc1Br (stereo not drawn) [AC114, (E)-2-Bromo-N-(piperidin-4-yl)-4-(4,4,4-trifluoro-3-(3,4,5-trichlorophenyl)but-1-en-1-yl)benzamide] | A (50-100) |
| Cc1cc(/C=C/C(c2cc(Cl)cc(Cl)c2)C(F)(F)F)ccc1C(=S)NCc1ccc(Cl)nc1 (stereo not drawn) [AC115, (E)-N-((6-Chloropyridin-3-yl)methyl)-4-(3-(3,5-dichlorophenyl)-4,4,4-trifluorobut-1-en-1-yl)-2-methylbenzothioamide] | A (50-100) |
| Cc1cc(/C=C/C(c2cc(Cl)cc(Cl)c2)C(F)(F)F)ccc1C(=O)N(C)Cc1ccc(Cl)nc1 (stereo not drawn) [AC117] | A (50-100) |
| Cc1cc(/C=C/C(c2cc(Cl)cc(Cl)c2)C(F)(F)F)ccc1C(=O)NCC1CCCO1 (stereo not drawn) [AC118] | A (50-100) |
| O=C(CC(F)(F)F)NC1CCCc2cc(/C=C/C(c3cc(Cl)c(Cl)c(Cl)c3)C(F)(F)F)ccc21 (stereo not drawn) [BC5] | A (50-100) |
| O=C(NC1CCc2cc(/C=C/C(c3cc(Cl)c(Cl)c(Cl)c3)C(F)(F)F)ccc21)C1CC1 (stereo not drawn) [BC6] | A (50-100) |
| O=C(NC1CCCc2cc(/C=C/C(c3cc(Cl)c(Cl)c(Cl)c3)C(F)(F)F)ccc21)C1CC1 (stereo not drawn) [BC7] | A (50-100) |

| Compound | BAW Rating |
| --- | --- |
| O=C(CC(F)(F)F)NC1CCc2cc(/C=C/C(c3cc(Cl)c(F)c(Cl)c3)C(F)(F)F)ccc21 (stereo not drawn) [BC8] | A (50-100) |
| O=C(Cc1ccc(Cl)nc1)NC1CCc2cc(/C=C/C(c3cc(Cl)c(F)c(Cl)c3)C(F)(F)F)ccc21 (stereo not drawn) [BC9] | A (50-100) |
| Fc1c(Cl)cc(C(/C=C/c2ccc3c(c2)CCC3NCCC(F)(F)F)C(F)(F)F)cc1Cl (stereo not drawn) [BC10, (E)-5-(3-(3,5-Dichloro-4-fluorophenyl)-4,4,4-trifluorobut-1-en-1-yl)-N-(3,3,3-trifluoropropyl)-2,3-dihydro-1H-inden-1-amine] | A (50-100) |
| O=C(CC(F)(F)F)NCC(=O)n1ccc2cc(/C=C/C(c3cc(Cl)c(F)c(Cl)c3)C(F)(F)F)ccc21 (stereo not drawn) [BC13, (E)-N-(2-(5-(3-(3,5-Dichloro-4-fluorophenyl)-4,4,4-trifluorobut-1-en-1-yl)-1H-indol-1-yl)-2-oxoethyl)-3,3,3-trifluoropropanamide] | A (50-100) |
| O=C(Cn1ncc2cc(/C=C/C(c3cc(Cl)c(F)c(Cl)c3)C(F)(F)F)ccc2c1=O)NCC(F)(F)F (stereo not drawn) [BC14, (E)-2-(6-(3-(3,5-Dichloro-4-fluorophenyl)-4,4,4-trifluorobut-1-en-1-yl)-1-oxophthalazin-2(1H)-yl)-N-(2,2,2-trifluoroethyl)acetamide] | A (50-100) |
| O=C(NCc1ccc(/C=C/C(c2cc(Cl)cc(Cl)c2)C(F)(F)F)cc1)C1CC1 (stereo not drawn) [CC2] | A (50-100) |
| O=C(CC(F)(F)F)NCc1ccc(/C=C/C(c2cc(Cl)cc(Cl)c2)C(F)(F)F)cc1 (stereo not drawn) [CC3] | A (50-100) |
| CCC(=O)NCc1ccc(/C=C/C(c2cc(Cl)cc(Cl)c2)C(F)(F)F)cc1 (stereo not drawn) [CC4] | A (50-100) |
| O=C(NCc1ccc(/C=C/C(c2cc(Cl)c(Cl)c(Cl)c2)C(F)(F)F)cc1)C1CC1 (stereo not drawn) [CC5] | A (50-100) |
| O=C(CC(F)(F)F)NCc1ccc(/C=C/C(c2cc(Cl)c(Cl)c(Cl)c2)C(F)(F)F)cc1 (stereo not drawn) [CC6] | A (50-100) |
| CC(=O)NCc1ccc(/C=C/C(c2cc(Cl)cc(Cl)c2)C(F)(F)F)cc1Cl (stereo not drawn) [CC7, (E)-N-(2-Chloro-4-(3-(3,5-dichlorophenyl)-4,4,4-trifluorobut-1-en-1-yl)benzyl)acetamide] | A (50-100) |
| O=C(NCc1ccc(/C=C/C(c2cc(Cl)cc(Cl)c2)C(F)(F)F)cc1Cl)C1CC1 (stereo not drawn) [CC8] | A (50-100) |
| O=C(CC(F)(F)F)NCc1ccc(/C=C/C(c2cc(Cl)cc(Cl)c2)C(F)(F)F)cc1Cl (stereo not drawn) [CC9] | A (50-100) |
| O=C(NCc1ccc(/C=C/C(c2cc(Cl)c(Cl)c(Cl)c2)C(F)(F)F)cc1Cl)C1CC1 (stereo not drawn) [CC11] | A (50-100) |
| O=C(Cc1ccc(Cl)nc1)NCc1ccc(/C=C/C(c2cc(Cl)c(Cl)c(Cl)c2)C(F)(F)F)cc1Cl (stereo not drawn) [CC14] | A (50-100) |
| O=C(NCc1ccc(/C=C/C(c2cc(Cl)c(F)c(Cl)c2)C(F)(F)F)cc1Cl)C1CC1 (stereo not drawn) [CC15] | A (50-100) |
| O=C(NCc1ccc(/C=C/C(c2ccc(Cl)c(Cl)c2)C(F)(F)F)cc1Cl)C1CC1 (stereo not drawn) [CC17] | A (50-100) |
| O=C(CC(F)(F)F)NCc1ccc(/C=C/C(c2ccc(Cl)c(Cl)c2)C(F)(F)F)cc1Cl (stereo not drawn) [CC18] | A (50-100) |
| CSCCC(=O)NCc1ccc(/C=C/C(c2cc(Cl)c(Cl)c(Cl)c2)C(F)(F)F)cc1Cl (stereo not drawn) [CC19] | A (50-100) |
| FC(F)(F)C(/C=C/c1ccc(CNC(=S)C2CC2)c(Cl)c1)c1cc(Cl)c(Cl)c(Cl)c1 (stereo not drawn) [CC20] | A (50-100) |
| O=C(NCc1ccc(/C=C/C(c2cc(Cl)cc(Cl)c2)C(F)(F)F)cc1C(F)(F)F)C1CC1 (stereo not drawn) [CC21] | A (50-100) |
| O=C(NCc1ccc(/C=C/C(c2cc(Cl)c(Cl)c(Cl)c2)C(F)(F)F)cc1C(F)(F)F)C1CC1 (stereo not drawn) [CC22] | A (50-100) |
| O=C(NCc1ccc(/C=C/C(c2cc(Cl)c(Cl)c(Cl)c2)C(F)(F)F)cc1C(F)(F)F)c1cccnc1 (stereo not drawn) [CC23] | A (50-100) |
| O=C(CC(F)(F)F)NCc1ccc(/C=C/C(c2cc(Cl)c(Cl)c(Cl)c2)C(F)(F)F)cc1C(F)(F)F (stereo not drawn) [CC24] | A (50-100) |
